Patent US9340600B2 (Indiana University Research and Technology Corporation, priority 2012, dated 2016)
*1 amine or outer side, *2 acyl side, *3 side chain or, on linkers, in order; H or OH if unused. Where a SMILES comes first, the peptide text is derived from it. Side-chain parts run from the residue outwards. [ ]: non-standard residue; d: D form. The star is where a group is joined. γGlu = O=C(O)[C@H](CCC(=O)[*:2])N[*:1]; Palmitoyl = CCCCCCCCCCCCCCCC(=O)*; hSer = N[C@@H](CCO)C(=O)O; Aib = CC(C)(N)C(=O)O

Experiments:
Assay type in all cases: cell-based
glucagon receptor = target: T1, glucagon receptor (Homo sapiens, UniProt P47871); test: cAMP induction, firefly luciferase-based reporter assay in HEK293 cells co-transfected with glucagon receptor; details: EC50 at Glucagon Receptor
T1 construct: expressed in transfected cells; host or cells: HEK293
T1 sequence (P47871 26-477): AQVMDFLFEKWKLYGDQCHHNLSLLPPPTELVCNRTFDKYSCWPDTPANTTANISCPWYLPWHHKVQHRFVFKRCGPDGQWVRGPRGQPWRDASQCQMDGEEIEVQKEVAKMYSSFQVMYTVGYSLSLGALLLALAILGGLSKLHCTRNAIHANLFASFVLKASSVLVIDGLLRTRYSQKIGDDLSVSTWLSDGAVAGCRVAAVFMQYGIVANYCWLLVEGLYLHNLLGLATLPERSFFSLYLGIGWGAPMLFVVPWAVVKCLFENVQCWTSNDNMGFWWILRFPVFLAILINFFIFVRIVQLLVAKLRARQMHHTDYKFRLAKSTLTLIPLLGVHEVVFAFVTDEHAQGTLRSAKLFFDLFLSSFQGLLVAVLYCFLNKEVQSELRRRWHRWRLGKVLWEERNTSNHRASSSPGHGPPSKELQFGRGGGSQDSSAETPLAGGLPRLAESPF
Excerpt: (§1) This example describes an exemplary method of testing the biological activity of the peptides of the present disclosures, which method involves assaying cAMP synthesis.

GLP-1 receptor = target: T2, GLP-1 receptor (Homo sapiens, UniProt P43220); test: cAMP induction, firefly luciferase-based reporter assay in HEK293 cells co-transfected with GLP-1 receptor; details: EC50 at GLP-1 Receptor
T2 construct: expressed in transfected cells; host or cells: HEK293
T2 sequence (P43220 24-463): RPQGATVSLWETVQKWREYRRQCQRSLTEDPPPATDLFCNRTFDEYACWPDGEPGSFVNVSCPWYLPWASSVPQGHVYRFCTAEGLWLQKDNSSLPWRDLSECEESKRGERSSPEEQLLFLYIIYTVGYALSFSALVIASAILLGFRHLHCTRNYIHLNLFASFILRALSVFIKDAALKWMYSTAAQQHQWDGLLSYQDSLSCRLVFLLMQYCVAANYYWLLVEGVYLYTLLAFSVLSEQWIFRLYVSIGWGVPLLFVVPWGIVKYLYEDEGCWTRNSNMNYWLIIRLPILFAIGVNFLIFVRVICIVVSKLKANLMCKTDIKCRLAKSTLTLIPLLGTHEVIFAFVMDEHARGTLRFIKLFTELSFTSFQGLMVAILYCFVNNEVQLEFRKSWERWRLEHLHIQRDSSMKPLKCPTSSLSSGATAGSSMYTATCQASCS
Excerpt: as §1

GIP receptor = target: T3, GIP receptor (Homo sapiens, UniProt P48546); test: cAMP induction, firefly luciferase-based reporter assay in HEK293 cells co-transfected with GIP receptor; details: EC50 at GIP Receptor
T3 construct: expressed in transfected cells; host or cells: HEK293
T3 sequence (P48546 22-466): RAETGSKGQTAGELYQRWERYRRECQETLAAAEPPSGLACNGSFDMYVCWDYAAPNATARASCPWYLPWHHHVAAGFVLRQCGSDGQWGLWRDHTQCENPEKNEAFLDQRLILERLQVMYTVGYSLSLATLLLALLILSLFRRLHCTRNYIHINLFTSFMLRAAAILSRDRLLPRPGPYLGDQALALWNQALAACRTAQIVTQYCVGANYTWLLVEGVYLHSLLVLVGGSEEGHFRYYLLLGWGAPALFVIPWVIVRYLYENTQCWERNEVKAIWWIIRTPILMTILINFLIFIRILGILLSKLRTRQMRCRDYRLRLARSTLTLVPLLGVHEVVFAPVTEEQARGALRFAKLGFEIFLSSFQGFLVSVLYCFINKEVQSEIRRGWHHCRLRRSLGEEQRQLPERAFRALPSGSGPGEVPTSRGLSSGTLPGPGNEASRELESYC
Excerpt: as §1

[1] = Table 3, analogs of SEQ ID NO: 18 varying at position 3
[2] = Table 4, analogs of SEQ ID NO: 43 varying at position 3
[3] = Table 2, analogs of SEQ ID NO: 18 varying at positions 16-21

Structure (SMILES) | EC50 (glucagon receptor; [1]) [pM] | EC50 (GLP-1 receptor; [1]) [pM] | EC50 (GIP receptor; [1]) [pM] | EC50 (glucagon receptor; [3]) [pM] | EC50 (GLP-1 receptor; [3]) [pM] | EC50 (GIP receptor; [3]) [pM] | also measured
CCCCCCCCCCCCCCCC(=O)N[C@@H](CCC(=O)NCCCC[C@H](NC(=O)[C@H](CC(=O)O)NC(=O)[C@H](CO)NC(=O)[C@@H](NC(=O)[C@H](Cc1ccccc1)NC(=O)[C@@H](NC(=O)CNC(=O)[C@H](CCO)NC(=O)C(C)(C)NC(=O)[C@@H](N)Cc1c[nH]cn1)[C@@H](C)O)[C@@H](C)O)C(=O)N[C@@H](CO)C(=O)N[C@@H](CCCCN)C(=O)N[C@@H](Cc1ccc(O)cc1)C(=O)N[C@@H](CC(C)C)C(=O)N[C@@H](CCC(=O)O)C(=O)N[C@@H](CCC(=O)O)C(=O)N[C@@H](CCCNC(=N)N)C(=O)N[C@@H](C)C(=O)N[C@@H](C)C(=O)N[C@@H](CCC(N)=O)C(=O)N[C@@H](CCC(=O)O)C(=O)N[C@@H](Cc1ccccc1)C(=O)N[C@H](C(=O)N[C@@H](CCC(N)=O)C(=O)N[C@@H](Cc1c[nH]c2ccccc12)C(=O)N[C@@H](CC(C)C)C(=O)N[C@@H](CC(C)C)C(=O)N[C@@H](CCC(=O)O)C(=O)NCC(=O)NCC(=O)N1CCC[C@H]1C(=O)N[C@@H](CO)C(=O)N[C@@H](CO)C(=O)NCC(=O)N[C@@H](C)C(=O)N1CCC[C@H]1C(=O)N1CCC[C@H]1C(=O)N1CCC[C@H]1C(=O)N[C@@H](CO)C(N)=O)C(C)C)C(=O)O [compound 33] (H-H[Aib][hSer]GTFTSDK([γGlu-Palmitoyl])SKYLEERAAQEFVQWLLEGGPSSGAPPPS-NH2) | 15 | 2 | 4 | – | – | – | –
CCCCCCCCCCCCCCCC(=O)N[C@@H](CCC(=O)NCCCC[C@H](NC(=O)[C@H](CC(=O)O)NC(=O)[C@H](CO)NC(=O)[C@@H](NC(=O)[C@H](Cc1ccccc1)NC(=O)[C@@H](NC(=O)CNC(=O)[C@@H](NC(=O)C(C)(C)NC(=O)[C@@H](N)Cc1c[nH]cn1)C(C)C)[C@@H](C)O)[C@@H](C)O)C(=O)N[C@@H](CO)C(=O)N[C@@H](CCCCN)C(=O)N[C@@H](Cc1ccc(O)cc1)C(=O)N[C@@H](CC(C)C)C(=O)N[C@@H](CCC(=O)O)C(=O)N[C@@H](CCC(=O)O)C(=O)N[C@@H](CCCNC(=N)N)C(=O)N[C@@H](C)C(=O)N[C@@H](C)C(=O)N[C@@H](CCC(N)=O)C(=O)N[C@@H](CCC(=O)O)C(=O)N[C@@H](Cc1ccccc1)C(=O)N[C@H](C(=O)N[C@@H](CCC(N)=O)C(=O)N[C@@H](Cc1c[nH]c2ccccc12)C(=O)N[C@@H](CC(C)C)C(=O)N[C@@H](CC(C)C)C(=O)N[C@@H](CCC(=O)O)C(=O)NCC(=O)NCC(=O)N1CCC[C@H]1C(=O)N[C@@H](CO)C(=O)N[C@@H](CO)C(=O)NCC(=O)N[C@@H](C)C(=O)N1CCC[C@H]1C(=O)N1CCC[C@H]1C(=O)N1CCC[C@H]1C(=O)N[C@@H](CO)C(N)=O)C(C)C)C(=O)O [compound 37] (H-H[Aib]VGTFTSDK([γGlu-Palmitoyl])SKYLEERAAQEFVQWLLEGGPSSGAPPPS-NH2; N-terminus assumed) | 29 | 2 | 2 | – | – | – | –
CCCCCCCCCCCCCCCC(=O)N[C@@H](CCC(=O)NCCCC[C@H](NC(=O)[C@H](CC(=O)O)NC(=O)[C@H](CO)NC(=O)[C@@H](NC(=O)[C@H](Cc1ccccc1)NC(=O)[C@@H](NC(=O)CNC(=O)[C@H](CCSC)NC(=O)C(C)(C)NC(=O)[C@@H](N)Cc1c[nH]cn1)[C@@H](C)O)[C@@H](C)O)C(=O)N[C@@H](CO)C(=O)N[C@@H](CCCCN)C(=O)N[C@@H](Cc1ccc(O)cc1)C(=O)N[C@@H](CC(C)C)C(=O)N[C@@H](CCC(=O)O)C(=O)N[C@@H](CCC(=O)O)C(=O)N[C@@H](CCCNC(=N)N)C(=O)N[C@@H](C)C(=O)N[C@@H](C)C(=O)N[C@@H](CCC(N)=O)C(=O)N[C@@H](CCC(=O)O)C(=O)N[C@@H](Cc1ccccc1)C(=O)N[C@H](C(=O)N[C@@H](CCC(N)=O)C(=O)N[C@@H](Cc1c[nH]c2ccccc12)C(=O)N[C@@H](CC(C)C)C(=O)N[C@@H](CC(C)C)C(=O)N[C@@H](CCC(=O)O)C(=O)NCC(=O)NCC(=O)N1CCC[C@H]1C(=O)N[C@@H](CO)C(=O)N[C@@H](CO)C(=O)NCC(=O)N[C@@H](C)C(=O)N1CCC[C@H]1C(=O)N1CCC[C@H]1C(=O)N1CCC[C@H]1C(=O)N[C@@H](CO)C(N)=O)C(C)C)C(=O)O [compound 31] (H-H[Aib]MGTFTSDK([γGlu-Palmitoyl])SKYLEERAAQEFVQWLLEGGPSSGAPPPS-NH2; N-terminus assumed) | 30 | 2 | 5 | – | – | – | –
CCCCCCCCCCCCCCCC(=O)N[C@@H](CCC(=O)NCCCC[C@H](NC(=O)[C@H](CC(=O)O)NC(=O)[C@H](CO)NC(=O)[C@@H](NC(=O)[C@H](Cc1ccccc1)NC(=O)[C@@H](NC(=O)CNC(=O)[C@H](CCO)NC(=O)C(C)(C)NC(=O)[C@@H](N)Cc1c[nH]cn1)[C@@H](C)O)[C@@H](C)O)C(=O)N[C@@H](CO)C(=O)N[C@@H](CCCCN)C(=O)N[C@@H](Cc1ccc(O)cc1)C(=O)N[C@@H](CC(C)C)C(=O)N[C@@H](CC(=O)O)C(=O)N[C@@H](CCC(=O)O)C(=O)N[C@@H](CCCNC(=N)N)C(=O)N[C@@H](C)C(=O)N[C@@H](C)C(=O)N[C@@H](CCC(N)=O)C(=O)N[C@@H](CC(=O)O)C(=O)N[C@@H](Cc1ccccc1)C(=O)N[C@H](C(=O)N[C@@H](CCC(N)=O)C(=O)N[C@@H](Cc1c[nH]c2ccccc12)C(=O)N[C@@H](CC(C)C)C(=O)N[C@@H](CC(C)C)C(=O)N[C@@H](CCC(=O)O)C(=O)NCC(=O)NCC(=O)N1CCC[C@H]1C(=O)N[C@@H](CO)C(=O)N[C@@H](CO)C(=O)NCC(=O)N[C@@H](C)C(=O)N1CCC[C@H]1C(=O)N1CCC[C@H]1C(=O)N1CCC[C@H]1C(=O)N[C@@H](CO)C(N)=O)C(C)C)C(=O)O [compound 48] (H-H[Aib][hSer]GTFTSDK([γGlu-Palmitoyl])SKYLDERAAQDFVQWLLEGGPSSGAPPPS-NH2) | – | – | – | – | – | – | EC50 (glucagon receptor; [2]): 16 pM; EC50 (GLP-1 receptor; [2]): 3 pM; EC50 (GIP receptor; [2]): 4 pM
CCCCCCCCCCCCCCCC(=O)N[C@@H](CCC(=O)NCCCC[C@H](NC(=O)[C@H](CC(=O)O)NC(=O)[C@H](CO)NC(=O)[C@@H](NC(=O)[C@H](Cc1ccccc1)NC(=O)[C@@H](NC(=O)CNC(=O)[C@H](CCC(N)=O)NC(=O)C(C)(C)NC(=O)[C@@H](N)Cc1c[nH]cn1)[C@@H](C)O)[C@@H](C)O)C(=O)N[C@@H](CO)C(=O)N[C@@H](CCCCN)C(=O)N[C@@H](Cc1ccc(O)cc1)C(=O)N[C@@H](CC(C)C)C(=O)N[C@@H](CC(=O)O)C(=O)N[C@@H](CCC(=O)O)C(=O)N[C@@H](CCCNC(=N)N)C(=O)N[C@@H](C)C(=O)NC(C)(C)C(=O)N[C@@H](CCCCN)C(=O)N[C@@H](CCC(=O)O)C(=O)N[C@@H](Cc1ccccc1)C(=O)N[C@H](C(=O)N[C@@H](CCC(N)=O)C(=O)N[C@@H](Cc1c[nH]c2ccccc12)C(=O)N[C@@H](CC(C)C)C(=O)N[C@@H](CC(C)C)C(=O)N[C@@H](CC(=O)O)C(=O)NCC(=O)NCC(=O)N1CCC[C@H]1C(=O)N[C@@H](CO)C(=O)N[C@@H](CO)C(=O)NCC(=O)N[C@@H](C)C(=O)N1CCC[C@H]1C(=O)N1CCC[C@H]1C(=O)N1CCC[C@H]1C(=O)N[C@@H](CO)C(N)=O)C(C)C)C(=O)O [compound 27] (H-H[Aib]QGTFTSDK([γGlu-Palmitoyl])SKYLDERA[Aib]KEFVQWLLDGGPSSGAPPPS-NH2) | – | – | – | 165 | 2 | 4 | –
CCCCCCCCCCCCCCCC(=O)N[C@@H](CCC(=O)NCCCC[C@H](NC(=O)[C@H](CC(=O)O)NC(=O)[C@H](CO)NC(=O)[C@@H](NC(=O)[C@H](Cc1ccccc1)NC(=O)[C@@H](NC(=O)CNC(=O)[C@H](CCC(N)=O)NC(=O)C(C)(C)NC(=O)[C@@H](N)Cc1c[nH]cn1)[C@@H](C)O)[C@@H](C)O)C(=O)N[C@@H](CO)C(=O)N[C@@H](CCCCN)C(=O)N[C@@H](Cc1ccc(O)cc1)C(=O)N[C@@H](CC(C)C)C(=O)N[C@@H](CC(=O)O)C(=O)N[C@@H](CCC(=O)O)C(=O)N[C@@H](CCCNC(=N)N)C(=O)N[C@@H](C)C(=O)N[C@@H](C)C(=O)N[C@@H](CCCCN)C(=O)N[C@@H](CC(=O)O)C(=O)N[C@@H](Cc1ccccc1)C(=O)N[C@H](C(=O)N[C@@H](CCC(N)=O)C(=O)N[C@@H](Cc1c[nH]c2ccccc12)C(=O)N[C@@H](CC(C)C)C(=O)N[C@@H](CC(C)C)C(=O)N[C@@H](CC(=O)O)C(=O)NCC(=O)NCC(=O)N1CCC[C@H]1C(=O)N[C@@H](CO)C(=O)N[C@@H](CO)C(=O)NCC(=O)N[C@@H](C)C(=O)N1CCC[C@H]1C(=O)N1CCC[C@H]1C(=O)N1CCC[C@H]1C(=O)N[C@@H](CO)C(N)=O)C(C)C)C(=O)O [compound 20] (H-H[Aib]QGTFTSDK([γGlu-Palmitoyl])SKYLDERAAKDFVQWLLDGGPSSGAPPPS-NH2; N-terminus assumed) | – | – | – | 6 | 10 | 5 | –
